GI50 and TGI data for 14 molecules are collected here from PubChem BioAssay (NCI).

Each structure is given as a SMILES string.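 Values below derive from 48-hour exposures of cells grown in 96-well plates, with endpoints linearly interpolated between the two concentrations bracketing the appropriate inhibition level. Here, GI50 denotes the concentration required for 50% inhibition of growth. TGI is the concentration that stops growth completely.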

Among the test systems are K-562 leukemia; A498 renal; HOP-62 NSCLC; SNB-75 CNS; KM12 colon; CCRF-CEM leukemia; SW-620 colon; MCF7 breast.
What all share (assay): DTP human tumour cell line panel, 48 h

For the molecule `Oc1c(Cl)cc(Cl)c(Cl)c1CNCCNCc1c(O)c(Cl)cc(Cl)c1Cl`, the GI50 – broadly, the concentration giving 50% growth inhibition – was 0.483 µM in the assay on K-562 leukemia; 3.03 µM with A498 renal; 0.894 µM with HOP-62 NSCLC; 2.43 µM with SNB-75 CNS; 0.963 µM with KM12 colon; 0.231 µM in the assay with CCRF-CEM leukemia. Besides, the GI50 with SW-620 colon was 1.71 µM; in the assay on MCF7 breast, 1.12 µM. Further, the TGI (as a rule, the concentration at which net growth stops) was more than 50 µM in the assay on K-562 leukemia; 17.3 µM in the assay on A498 renal; 8.3 µM in the assay on HOP-62 NSCLC; 10.6 µM with SNB-75 CNS; 8 µM in the assay on KM12 colon; more than 50 µM in the assay on CCRF-CEM leukemia. Also, the results for the TGI in the assay with SW-620 colon and with MCF7 breast were more than 50 µM and 14.5 µM, respectively.

Turning to `CCc1ccc(Oc2c(-c3ccc(OCc4ccc(Cl)cc4)cc3O)n[nH]c2C(F)(F)F)cc1`, the GI50 was 2.32 µM with K-562 leukemia; 1.87 µM in the assay on A498 renal; 1.87 µM in the assay with HOP-62 NSCLC; 1.48 µM in the assay on SNB-75 CNS; 1.77 µM in the assay on KM12 colon; 2.92 µM with CCRF-CEM leukemia. Also, the figures for the GI50 in the assay with SW-620 colon and in the assay with MCF7 breast were 2.05 µM and 2 µM, respectively. Also, the TGI was found to be 5.37 µM in the assay with K-562 leukemia; 3.82 µM in the assay on A498 renal; 3.48 µM with HOP-62 NSCLC; 5.8 µM in the assay on SNB-75 CNS; 3.35 µM in the assay on KM12 colon; 7.22 µM with CCRF-CEM leukemia. Besides, the TGI with SW-620 colon turned out to be 4.45 µM; with MCF7 breast it was 5.65 µM.

`Cc1nn(CNc2ccccc2C(F)(F)F)c(=S)n1/N=C/c1cccc2cccnc12`: the GI50 in the assay with K-562 leukemia is 35.8 µM; with A498 renal it was more than 100 µM; in the assay on HOP-62 NSCLC, more than 100 µM; in the assay with SNB-75 CNS it was 27.4 µM; with KM12 colon, 43.7 µM; in the assay with CCRF-CEM leukemia, 18.9 µM. Also, the values for the GI50 in the assay on SW-620 colon and in the assay with MCF7 breast were 65.8 µM and 54.9 µM, respectively. Besides, the TGI in the assay on K-562 leukemia, in the assay on A498 renal, in the assay on HOP-62 NSCLC, in the assay with SNB-75 CNS, in the assay on KM12 colon and in the assay on CCRF-CEM leukemia was more than 100 µM in each case. Also, the TGI in the assay on SW-620 colon and in the assay on MCF7 breast was more than 100 µM in each case.

For `Fc1ccc(-c2c(-c3ccncc3)nc3n2CCS3)cc1`, the GI50 in the assay with K-562 leukemia was more than 25 µM; with A498 renal it was more than 15.6 µM; with HOP-62 NSCLC it was more than 25 µM; in the assay with SNB-75 CNS, more than 25 µM; in the assay with KM12 colon it was more than 25 µM; in the assay on CCRF-CEM leukemia it was more than 25 µM. The GI50 with SW-620 colon and in the assay with MCF7 breast was more than 25 µM throughout. For the same molecule, the TGI in the assay with K-562 leukemia, in the assay with A498 renal, in the assay on HOP-62 NSCLC, in the assay on SNB-75 CNS, with KM12 colon and in the assay on CCRF-CEM leukemia was more than 25 µM in each case. The TGI in the assay on SW-620 colon and with MCF7 breast was more than 25 µM in each case.

Consider `C[C@@H](Oc1cc(-n2cnc3ccc(OC4CCN(C)CC4)cc32)sc1C(N)=O)c1ccccc1Cl`, for which the GI50 with K-562 leukemia is 0.0102 µM; with A498 renal it was 0.0403 µM; in the assay on HOP-62 NSCLC, 0.0166 µM; with SNB-75 CNS, 0.0614 µM; with KM12 colon, 0.00886 µM; in the assay with CCRF-CEM leukemia, 0.00953 µM. Besides, the results for the GI50 with SW-620 colon and with MCF7 breast were 0.00875 µM and 0.00884 µM, respectively. The TGI came to 4.9 µM in the assay with K-562 leukemia; 0.301 µM in the assay with A498 renal; 3.29 µM in the assay on HOP-62 NSCLC; 2.89 µM in the assay with SNB-75 CNS; 2.97 µM in the assay on KM12 colon; 4.19 µM in the assay with CCRF-CEM leukemia. Also, the concentration for total growth inhibition (TGI) came to 3.48 µM in the assay with SW-620 colon and 3.92 µM with MCF7 breast.

Consider `COc1ccccc1Nc1cc(O)c2c(=O)cc(-c3ccccc3)oc2c1`, for which the GI50 in the assay on K-562 leukemia was 0.59 µM; in the assay on A498 renal, 3.08 µM; with HOP-62 NSCLC, 3.55 µM; in the assay with SNB-75 CNS it was 2.39 µM; with KM12 colon, 2.76 µM; in the assay on CCRF-CEM leukemia it was 3.57 µM. Also, the GI50 with SW-620 colon was 2.5 µM; in the assay with MCF7 breast, 1.63 µM. For the same molecule, the TGI in the assay with K-562 leukemia is more than 100 µM; in the assay with A498 renal it was 13.9 µM; with HOP-62 NSCLC, more than 100 µM; in the assay with SNB-75 CNS, 8.5 µM; in the assay on KM12 colon it was 55.2 µM; with CCRF-CEM leukemia, more than 100 µM. The TGI in the assay with SW-620 colon and with MCF7 breast was more than 100 µM in each case.

For `CN[C@H]1CN(c2ccc3c(=O)c(C(=O)O)cn(-c4nccs4)c3n2)C[C@@H]1OC`, the GI50 is 0.632 µM with K-562 leukemia; 0.273 µM with A498 renal; 0.6 µM with HOP-62 NSCLC; 0.637 µM with SNB-75 CNS; 1.37 µM in the assay with KM12 colon; 0.316 µM in the assay on CCRF-CEM leukemia. Moreover, the figures for the GI50 in the assay on SW-620 colon and in the assay on MCF7 breast were 0.633 µM and 0.358 µM, respectively. Besides, the TGI was 5.81 µM in the assay with K-562 leukemia; 2.01 µM in the assay on A498 renal; 3.4 µM with HOP-62 NSCLC; 2.55 µM with SNB-75 CNS; 13.9 µM with KM12 colon; more than 22.9 µM with CCRF-CEM leukemia. Besides, the TGI is 3.54 µM with SW-620 colon and 5.07 µM in the assay with MCF7 breast.

In the case of `CNC(=O)c1ccc(N2C(=S)N(c3cnc(C#N)c(C(F)(F)F)c3)C(=O)C23CCC3)cc1F`, the GI50 in the assay with K-562 leukemia is more than 100 µM; with A498 renal, more than 53.2 µM; in the assay on HOP-62 NSCLC, more than 100 µM; in the assay with SNB-75 CNS, more than 100 µM; with KM12 colon, more than 100 µM; in the assay with CCRF-CEM leukemia it was more than 100 µM. Also, the GI50 in the assay on SW-620 colon is more than 100 µM; in the assay on MCF7 breast, 99.8 µM. Moreover, the TGI in the assay with K-562 leukemia, with A498 renal, in the assay with HOP-62 NSCLC, in the assay with SNB-75 CNS, with KM12 colon and in the assay with CCRF-CEM leukemia was more than 100 µM in each case. The TGI in the assay on SW-620 colon and in the assay with MCF7 breast was more than 100 µM in each case.

For `Clc1c(Cl)[n+](Cc2ccc3ccccc3c2)cn1Cc1ccc2ccccc2c1`, the GI50 in the assay with K-562 leukemia was 1.71 µM; with A498 renal, 1.23 µM; in the assay with HOP-62 NSCLC it was 1.26 µM; in the assay with SNB-75 CNS it was 0.836 µM; with KM12 colon, 1.53 µM; in the assay with CCRF-CEM leukemia, 2.89 µM. Moreover, the GI50 with SW-620 colon is 1.47 µM; in the assay on MCF7 breast, 1.32 µM. Also, the TGI with K-562 leukemia turned out to be 3.73 µM; in the assay on A498 renal, 2.92 µM; with HOP-62 NSCLC, 2.61 µM; in the assay on SNB-75 CNS, 2.21 µM; in the assay with KM12 colon, 3.05 µM; in the assay with CCRF-CEM leukemia it was 7.06 µM. For the same molecule, the TGI in the assay with SW-620 colon was 3 µM; in the assay on MCF7 breast it was 2.88 µM.

On to `Cc1cc2c(C(=O)NC[C@H](C)c3ccccc3)c(O)c(O)cc2c(O)c1-c1c(C)cc2c(C(=O)NC[C@H](C)c3ccccc3)c(O)c(O)cc2c1O`, for which the GI50 in the assay on K-562 leukemia is 0.17 µM; in the assay with A498 renal, 0.316 µM; in the assay with HOP-62 NSCLC, 0.301 µM; with SNB-75 CNS, 0.251 µM; in the assay with KM12 colon it was 0.107 µM; in the assay on CCRF-CEM leukemia, 0.122 µM. The values for the GI50 in the assay with SW-620 colon and with MCF7 breast were 0.482 µM and 0.0685 µM, respectively. In addition, the TGI in the assay on K-562 leukemia amounted to 7.69 µM; with A498 renal, 7.54 µM; with HOP-62 NSCLC, 2.15 µM; in the assay with SNB-75 CNS, 1.98 µM; in the assay on KM12 colon, 2.24 µM; in the assay on CCRF-CEM leukemia, 11 µM. Also, the TGI in the assay with SW-620 colon was found to be 5.7 µM; in the assay with MCF7 breast, 4.2 µM.

`CCc1nc(N)nc(N)c1-c1ccc(Cl)c([N+](=O)[O-])c1`: the TGI with K-562 leukemia is more than 100 µM; in the assay with A498 renal it was more than 96 µM; with HOP-62 NSCLC, more than 95.5 µM; in the assay on SNB-75 CNS, more than 100 µM; in the assay with KM12 colon it was more than 100 µM; in the assay on CCRF-CEM leukemia, more than 32.7 µM. Also, the TGI in the assay with SW-620 colon is more than 100 µM; with MCF7 breast it was more than 89.7 µM.

With `C=CN(C(=O)N1CCN(c2cc3c(cc2F)c(=O)c(C(=O)O)cn3C2CC2)CC1)c1nc(-c2ccc(OC)cc2)cs1`, the GI50 in the assay on K-562 leukemia is 3.14 µM; in the assay on A498 renal, 2.93 µM; in the assay on HOP-62 NSCLC it was 3.37 µM; with SNB-75 CNS, 2.51 µM; with KM12 colon, 3.12 µM; in the assay with CCRF-CEM leukemia, 3.45 µM. Also, the GI50 in the assay with SW-620 colon was 4.04 µM; in the assay on MCF7 breast, 3.36 µM. Moreover, the TGI in the assay with K-562 leukemia was more than 100 µM; with A498 renal, more than 100 µM; with HOP-62 NSCLC, 65.4 µM; with SNB-75 CNS, 6.7 µM; in the assay on KM12 colon, more than 100 µM; with CCRF-CEM leukemia, more than 100 µM. The TGI in the assay on SW-620 colon and in the assay on MCF7 breast was more than 100 µM in each case.

As for `C/C=C(\C)c1cc(=O)c2c(C)cc3c(c2o1)C(=O)c1c(O)c(C2CC(C)(N(C)C)C(OC(C)=O)C(C)O2)cc(C2CC(N(C)C)C(O)C(C)O2)c1C3=O` (stereo not given), the TGI with K-562 leukemia is more than 50 µM; in the assay on A498 renal it was 11.1 µM; with HOP-62 NSCLC it was 6.45 µM; in the assay on SNB-75 CNS, 7.33 µM; with KM12 colon, 6.49 µM; in the assay on CCRF-CEM leukemia, more than 50 µM. The TGI in the assay on SW-620 colon is more than 27.7 µM; in the assay with MCF7 breast it was 7.85 µM.

For the molecule `O=C(O)CSc1n[nH]c(=O)[nH]c1=O`, the TGI with K-562 leukemia, in the assay with A498 renal, in the assay on HOP-62 NSCLC, with SNB-75 CNS, in the assay with KM12 colon and in the assay with CCRF-CEM leukemia was more than 100 µM each time. The TGI in the assay with SW-620 colon and in the assay with MCF7 breast was more than 100 µM throughout.
